We go through ten molecules from patent publication US20240208992A1, “MACROCYCLES AS CFTR MODULATORS” (Idorsia Pharmaceuticals Ltd, priority 2021, published 2024).

This assay concerns the target human F508del-CFTR (Homo sapiens, UniProt P13569, DEL508-508). The assay can be described thus: F508del-CFTR cell surface expression (corrector activity), DiscoveRx ß-galactosidase complementation chemiluminescence assay in recombinant U2OS cell line.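 On all read-outs here: U2OS cells co-expressing ProLink-tagged F508del-CFTR and a membrane-anchored enzyme acceptor, where more surface CFTR restores β-galactosidase activity measured by chemiluminescence.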 The note with it: U2OS cells, 16h compound incubation; for EC50: geomean of several measurements; for Emax: in relation to the Emax of the corrector lumacaftor (=100%), arithmetic mean.

[1] abbreviates: EC50, F508del-CFTR cell surface expression.

human F508del-CFTR, sequence (P13569 with tags, fused parts or gaps DEL508-508): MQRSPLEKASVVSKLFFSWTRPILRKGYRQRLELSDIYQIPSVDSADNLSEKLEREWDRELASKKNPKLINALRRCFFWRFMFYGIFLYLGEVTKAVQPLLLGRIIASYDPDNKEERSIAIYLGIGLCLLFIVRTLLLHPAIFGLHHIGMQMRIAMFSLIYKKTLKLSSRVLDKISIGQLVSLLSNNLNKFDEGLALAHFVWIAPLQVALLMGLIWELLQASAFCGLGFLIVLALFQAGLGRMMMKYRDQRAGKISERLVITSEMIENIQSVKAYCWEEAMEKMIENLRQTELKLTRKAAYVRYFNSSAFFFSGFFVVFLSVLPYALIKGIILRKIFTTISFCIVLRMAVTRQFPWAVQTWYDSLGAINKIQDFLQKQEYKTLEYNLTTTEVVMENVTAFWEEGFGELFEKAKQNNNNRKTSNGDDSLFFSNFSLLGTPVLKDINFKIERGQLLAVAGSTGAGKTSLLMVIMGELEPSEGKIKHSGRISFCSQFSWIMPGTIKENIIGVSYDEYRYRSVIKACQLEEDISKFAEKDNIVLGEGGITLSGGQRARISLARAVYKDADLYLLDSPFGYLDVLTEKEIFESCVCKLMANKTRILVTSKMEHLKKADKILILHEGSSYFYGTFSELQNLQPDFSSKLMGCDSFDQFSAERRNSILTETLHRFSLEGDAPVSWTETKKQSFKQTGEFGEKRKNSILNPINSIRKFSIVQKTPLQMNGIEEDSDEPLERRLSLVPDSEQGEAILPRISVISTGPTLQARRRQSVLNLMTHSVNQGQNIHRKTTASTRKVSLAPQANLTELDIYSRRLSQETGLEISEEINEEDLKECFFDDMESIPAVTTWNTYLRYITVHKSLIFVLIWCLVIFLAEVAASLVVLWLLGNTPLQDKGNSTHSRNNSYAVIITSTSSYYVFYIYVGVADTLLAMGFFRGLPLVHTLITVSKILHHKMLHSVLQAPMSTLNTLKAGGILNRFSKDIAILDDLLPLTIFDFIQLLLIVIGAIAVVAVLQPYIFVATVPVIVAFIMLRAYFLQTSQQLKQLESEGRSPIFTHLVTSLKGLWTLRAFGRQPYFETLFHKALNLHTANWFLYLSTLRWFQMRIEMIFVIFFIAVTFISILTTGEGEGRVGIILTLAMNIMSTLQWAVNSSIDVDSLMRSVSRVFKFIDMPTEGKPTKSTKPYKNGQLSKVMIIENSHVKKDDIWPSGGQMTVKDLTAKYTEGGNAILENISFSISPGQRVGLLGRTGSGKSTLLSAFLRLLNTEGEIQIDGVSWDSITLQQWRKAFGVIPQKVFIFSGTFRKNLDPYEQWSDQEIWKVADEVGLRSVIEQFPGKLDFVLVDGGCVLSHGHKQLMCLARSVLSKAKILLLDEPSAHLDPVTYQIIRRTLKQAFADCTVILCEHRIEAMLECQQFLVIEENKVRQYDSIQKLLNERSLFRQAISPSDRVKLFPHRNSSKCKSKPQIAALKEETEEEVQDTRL

Broadly, the EC50 is the concentration giving half of the maximal effect. The term Emax denotes the maximal effect, on the per cent scale that the assay sets. As for `CC(C)C[C@H]1C(=O)N(C)[C@@H](Cc2nc(C(F)(F)F)no2)C(=O)N[C@H](Cc2ccccc2)COc2cnc3ccc(F)cc3c2C(=O)N[C@H](C(=O)NCCc2noc(C3CC3)n2)CC(=O)N1C` [Example 812, (3S,7S,10S,13R)-13-benzyl-N-(2-(5-cyclopropyl-1,2,4-oxadiazol-3-yl)ethyl)-20-fluoro-7-isobutyl-6,9-dimethyl-1,5,8,11-tetraoxo-10-((3-(trifluoromethyl)-1,2,4-oxadiazol-5-yl)methyl)-1,2,3,4,5,6,7,8,9,10,11,12,13,14-tetradecahydro-[1]oxa[4,7,10,14]tetraazacycloheptadecino[17,16-c]quinoline-3-carboxamide], the 50% effective concentration (EC50) under setting [1] turned out to be 127 nM. Further, for the setting “U2OS”, the Emax stood at 280%.

Regarding `CC(C)C[C@H]1C(=O)N(C)[C@H](Cc2nc(-c3ccc(F)cn3)no2)C(=O)N[C@H](Cc2ccccc2)COc2cnc3ccc(F)cc3c2C(=O)N[C@H](C(=O)NCCc2noc(C3CC3)n2)CC(=O)N1C` [Example 813, (3S,7S,10R,13R)-13-benzyl-N-(2-(5-cyclopropyl-1,2,4-oxadiazol-3-yl)ethyl)-20-fluoro-10-((3-(5-fluoropyridin-2-yl)-1,2,4-oxadiazol-5-yl)methyl)-7-isobutyl-6,9-dimethyl-1,5,8,11-tetraoxo-1,2,3,4,5,6,7,8,9,10,11,12,13,14-tetradecahydro-[1]oxa[4,7,10,14]tetraazacycloheptadecino[17,16-c]quinoline-3-carboxamide], the EC50 under setting [1] stood at 110 nM. Also, the Emax (U2OS) came to 346%.

As for `CC(C)C[C@H]1C(=O)N(C)[C@@H](Cc2nc(-c3ccc(F)cn3)no2)C(=O)N[C@H](Cc2ccccc2)COc2cnc3ccc(F)cc3c2C(=O)N[C@H](C(=O)NCCc2noc(C3CC3)n2)CC(=O)N1C` [Example 814, (3S,7S,10S,13R)-13-benzyl-N-(2-(5-cyclopropyl-1,2,4-oxadiazol-3-yl)ethyl)-20-fluoro-10-((3-(5-fluoropyridin-2-yl)-1,2,4-oxadiazol-5-yl)methyl)-7-isobutyl-6,9-dimethyl-1,5,8,11-tetraoxo-1,2,3,4,5,6,7,8,9,10,11,12,13,14-tetradecahydro-[1]oxa[4,7,10,14]tetraazacycloheptadecino[17,16-c]quinoline-3-carboxamide], the Emax is listed as 242%. In addition, where the note is “F508del-CFTR cell surface expression”, the concentration for a half-maximal effect (EC50) came out at 631 nM.

On to `COc1cc(CCNC(=O)[C@@H]2CC(=O)N(C)[C@@H](CC(C)C)C(=O)N(C)[C@H](Cc3nc(-c4ccc(F)cn4)no3)C(=O)N[C@H](Cc3ccccc3)COc3cnc4ccc(F)cc4c3C(=O)N2)on1` [Example 815, (3S,7S,10R,13R)-13-benzyl-20-fluoro-10-((3-(5-fluoropyridin-2-yl)-1,2,4-oxadiazol-5-yl)methyl)-7-isobutyl-N-(2-(3-methoxyisoxazol-5-yl)ethyl)-6,9-dimethyl-1,5,8,11-tetraoxo-1,2,3,4,5,6,7,8,9,10,11,12,13,14-tetradecahydro-[1]oxa[4,7,10,14]tetraazacycloheptadecino[17,16-c]quinoline-3-carboxamide], for which the concentration for a half-maximal effect (EC50) under setting [1] was found to be 128 nM. The maximal response (Emax) (U2OS) is 413%.

Take `COc1cc(CCNC(=O)[C@@H]2CC(=O)N(C)[C@@H](CC(C)C)C(=O)N(C)[C@@H](Cc3nc(-c4ccc(F)cn4)no3)C(=O)N[C@H](Cc3ccccc3)COc3cnc4ccc(F)cc4c3C(=O)N2)on1` [Example 816, (3S,7S,10S,13R)-13-benzyl-20-fluoro-10-((3-(5-fluoropyridin-2-yl)-1,2,4-oxadiazol-5-yl)methyl)-7-isobutyl-N-(2-(3-methoxyisoxazol-5-yl)ethyl)-6,9-dimethyl-1,5,8,11-tetraoxo-1,2,3,4,5,6,7,8,9,10,11,12,13,14-tetradecahydro-[1]oxa[4,7,10,14]tetraazacycloheptadecino[17,16-c]quinoline-3-carboxamide]: under setting [1], the EC50 came out at 741 nM. Moreover, the Emax (U2OS) is 286%.

Consider `CC(C)C[C@H]1C(=O)N(C)C2(CC2)C(=O)N[C@H](Cc2ccccc2)COc2ccc3ncc(F)cc3c2C(=O)N[C@H](C(=O)NCCn2nnc(C3CC3)n2)CC(=O)N1C` [Example 817, (3′S,7′S,13′R)-13′-benzyl-N-(2-(5-cyclopropyl-2H-tetrazol-2-yl)ethyl)-20′-fluoro-7′-isobutyl-6′,9′-dimethyl-1′,5′,8′,11′-tetraoxo-2′,3′,4′,5′,6′,7′,8′,9′,11′,12′,13′,14′-dodecahydro-1′H-spiro[cyclopropane-1,10′-[1]oxa[4,7,10,14]tetraazacycloheptadecino[16,17-f]quinoline]-3′-carboxamide], for which the half-maximal effective concentration (EC50) under setting [1] turned out to be 420 nM. For the same molecule, the Emax (U2OS) is 375%.

Consider `COc1cc(CCNC(=O)[C@@H]2CC(=O)N(C)[C@@H](CC(C)C)C(=O)N(C)C3(CC3)C(=O)N[C@H](Cc3ccccc3)COc3ccc4ncc(F)cc4c3C(=O)N2)on1` [Example 818, (3′S,7′S,13′R)-13′-benzyl-20′-fluoro-7′-isobutyl-N-(2-(3-methoxyisoxazol-5-yl)ethyl)-6′,9′-dimethyl-1′,5′,8′,11′-tetraoxo-2′,3′,4′,5′,6′,7′,8′,9′,11′,12′,13′,14′-dodecahydro-1′H-spiro[cyclopropane-1,10′-[1]oxa[4,7,10,14]tetraazacycloheptadecino[16,17-f]quinoline]-3′-carboxamide], for which the EC50 under setting [1] worked out at 385 nM. Also, the Emax (U2OS) turned out to be 359%.

As to `COc1cc(CCNC(=O)[C@@H]2CC(=O)N(C)[C@@H](CC(C)C)C(=O)N(C)[C@H](CC(F)F)C(=O)N[C@H](Cc3ccccc3)COc3ccc4ncc(F)cc4c3C(=O)N2)on1` [Example 819, (3S,7S,10R,13R)-13-benzyl-10-(2,2-difluoroethyl)-20-fluoro-7-isobutyl-N-(2-(3-methoxyisoxazol-5-yl)ethyl)-6,9-dimethyl-1,5,8,11-tetraoxo-1,2,3,4,5,6,7,8,9,10,11,12,13,14-tetradecahydro-[1]oxa[4,7,10,14]tetraazacycloheptadecino[16,17-f]quinoline-3-carboxamide], the concentration for a half-maximal effect (EC50) under setting [1] was found to be 276 nM. Besides, the Emax (U2OS) came to 431%.

For `COc1nc(C)cc2c1C(=O)N[C@H](C(=O)NCCc1noc(C3CC3)n1)CC(=O)N(C)[C@@H](CC(C)C)C(=O)N(C)[C@H](Cc1nc(C(F)(F)F)no1)C(=O)N[C@H](Cc1ccccc1)CO2` [Example 820, (3R,6R,9S,13S)-3-benzyl-N-(2-(5-cyclopropyl-1,2,4-oxadiazol-3-yl)ethyl)-9-isobutyl-16-methoxy-7,10,18-trimethyl-5,8,11,15-tetraoxo-6-((3-(trifluoromethyl)-1,2,4-oxadiazol-5-yl)methyl)-2,3,4,5,6,7,8,9,10,11,12,13,14,15-tetradecahydropyrido[3,4-p][1]oxa[4,7,10,14]tetraazacycloheptadecine-13-carboxamide], the concentration giving a half-maximal response (EC50) under setting [1] is 49 nM. Further, the maximum response (Emax) (U2OS) was determined as 461%.

For `COc1noc(CCNC(=O)[C@@H]2CC(=O)N(C)[C@@H](CC(C)C)C(=O)N3CCCC[C@@H]3C(=O)N[C@H](Cc3ccccc3)COc3ccc4ncc(F)cc4c3C(=O)N2)n1` [Example 821, (9S,13S,19aR,22R)-22-benzyl-5-fluoro-13-isobutyl-N-(2-(3-methoxy-1,2,4-oxadiazol-5-yl)ethyl)-12-methyl-7,11,14,20-tetraoxo-7,8,9,10,11,12,13,14,17,18,19,19a,20,21,22,23-hexadecahydro-16H-pyrido[2′,1′:6,7][1]oxa[4,7,10,14]tetraazacycloheptadecino[16,17-f]quinoline-9-carboxamide], under setting [1], the half-maximal effective concentration (EC50) is 200 nM. Also, the Emax (U2OS) was 392%.
